In patent US20170035713A1, “SYNERGISTIC COMBINATIONS OF CAROTENOIDS AND POLYPHENOLS” (LYCORED LTD., priority 2009, published 2017):

Key:
Assay type in all cases: cell-based, mouse
[1] = tested on: PGE2 production by peritoneal macrophages; test: PGE2 measurement (radio-immunoassay) in LPS-stimulated peritoneal macrophages; conditions: for inhibition of PGE2 production (in words): FIG. 5a/5b lower panel, lutein 0.5 μM, beta-Carotene 1 μM, carnosic acid 1 μM; for inhibition of PGE2 production: used alone, FIG. 4 / FIG. 5a upper panel, same set of experiments as FIG. 2
Method: (§1) Macrophage isolation and cell culture—Peritoneal macrophages were collected from the peritoneal cavity of 6-8 week old male ICR mice (Harlan, Israel) that had been given an intraperitoneal injection of 1.5 ml of thioglycollate broth (4%) 4 days before harvest. Peritoneal macrophages were washed three times with PBS and, if needed, a hypotonic lysis of erythrocytes was performed, yielding 90-95% purity. The macrophages were identified by FACS analysis using FITC-conjugated rat anti-mouse F4/80 (MCA497F) (Serotec, Oxford, England) by flow microfluorimetry on FACS (Becton Dickinson, Mountain View, Calif.). For each sample, 10,000 light scatter-gated viable cells were analyzed. Peritoneal macrophages and murine macrophage cell line RAW264.7 were cultured RPMI 1640 medium containing 10% FCS, 2 mM L-glutamine; 100 U/ml penicillin; 100 μg/ml streptomycin (Beit-Haemek, Israel) in 96-well plates (1×10^6 cells/well) at 37° C. in 5% CO2 atmosphere. Cells were stimulated with LPS (0.1-1 μg/ml) in the presence or absence of carnosic acid and/or one or more of the following carotenoids: carnosic acid, purified lycopene, lycopene-rich tomato extract (Lyc-O-Mato®; LycoRed Ltd., Be'er Sheva, Israel), lutein and beta-Carotene.
(§2) The carnosic acid and the various carotenoids were dissolved in DMSO (to a final concentration of 5 mM). The mixture was vortexed and incubated in a water bath at 37° C. (with shaking) for 10 min and then sonicated in a sonicator bath three times for 15 seconds each time. Using this stock solution the desired concentrations were prepared by the addition of appropriate volumes thereof to warm culture medium.
(§3) Appropriate volumes of DMSO (0.1-0.2%) were added to the controls and the percent inhibition in each test tube was calculated in relation to its control.
PGE2 measurement—Supernatants of resting and stimulated cells were collected and immediately stored at −70° C. PGE2 levels were determined by utilizing a dextran coated charcoal radio-immunoassay protocol as previously described (Dror N, Tveria L, Meniv I, Ben-Shmuel S, Filipovich T, Fleisher-Berkovich S., Regul Pept. 2008 150: 21-5).
Briefly, 100 μl sample or PGE2 standard (Sigma Israel, Rehovot, Israel) were incubated in the presence of 500 μl anti-PGE2 anti-serum (Sigma Israel, Rehovot, Israel) for 30 min. [^3H]PGE2 (Amersham Biosciences, NJ, USA) was added next for 24 h at 4° C. 24 h later, 200 […]μl cold dextran coated charcoal suspension was added to each tube and incubated for 10 min on ice. The tubes were centrifuged at 3500 RPM for 15 min at 4° C. 500 μl of supernatants containing [^3H]PGE2-anti-PGE2 complexes were counted (Packard Spectrometry 1900CA) and the amount of PGE2 was calculated.

[2] = tested on: macrophage superoxide production; test: Superoxide production by macrophages (ferricytochrome c reduction); conditions: optimal low concentrations
Method: Peritoneal macrophages were isolated and treated as described hereinabove in Example 1.
Superoxide production: The production of superoxide anion (O2^−) by macrophages was measured as the superoxide dismutase-inhibitable reduction of ferricytochrome c by the microtiter plate technique, as known in the prior art. An aliquot of radiolabelled macrophages (5× 10^5 cells/well) used for the adherence assay was taken and suspended in 100 μl incubation medium containing ferricytochrome c ([…]). Stimulation was induced with PMA (50 ng/ml). The reduction of ferricytochrome c was followed by a change of absorbance at 550 nm at 2 min intervals for 30 min on a Thermomax Microplate Reader (Molecular Devices, Melno Park, Calif., USA). The maximal rates of superoxide generation were determined and expressed as nanomoles O2^−/10^6 cells/10 min using the extinction coefficient E550=21 mM^−1 cm^−1.

[3] = tested on: NO production by peritoneal macrophages; test: NO production assay in LPS-stimulated peritoneal macrophages (Example 1)
Method: as §1, §2, §3
NO production assay—NO levels in supernatants of cell cultures were determined by assaying nitrite levels using Griess reagent and sodium nitrite as a standard as described in Green, L. C., Wagner, D. A., Glogowski, J., Skipper, P. L., Wishnok, J. S., and Tannenbaum, S. R. (1982) Anal Biochem. 126: 131-138.

[4] = tested on: LPS stimulated NO production by macrophages; test: NO production assay in LPS-stimulated peritoneal macrophages, curcumin, lutein and Lycomato (second Example 1)
Method: Macrophage isolation and cell culture—Peritoneal macrophages were collected from the peritoneal cavity of 6-8 week old male ICR mice (Harlan, Israel) that had been given an intraperitoneal injection of 1.5 ml of thioglycollate broth (4%) 4 days before harvest. Peritoneal macrophages were washed three times with PBS and, if needed, a hypotonic lysis of erythrocytes was performed, yielding 90-95% purity. The macrophages were identified by FACS analysis using FITC-conjugated rat anti-mouse F4/80 (MCA497F) (Serotec, Oxford, England) by flow microfluorimetry on FACS (Becton Dickinson, Mountain View, Calif.). For each sample, 10,000 light scatter-gated viable cells were analyzed. Peritoneal macrophages were cultured in RPMI 1640 medium containing 10% FCS, 2 mM L-glutamine; 100 U/ml penicillin; 100 μg/ml streptomycin (Beit-Haemek, Israel) in 96-well plates (2×10^5 cells/well) at 37° C. in 5% CO2 atmosphere. LycoMato, Lutein and curcumin-PC (Indena product) and, for comparison, LycoMato, Lutein and pure curcumin and their various combinations were added to the cells. One hour later, LPS (0.2 μg/ml) was added and the macrophages were cultured at 37° C. in a 5% CO2 atmosphere for 24 h.
Curcumin PC (Indena) was dissolved in Diethylene glycol monoethyl ether from Sigma (as recommended by Indena). The volume of solvent was 0.12% for 1 µM curcumin PC. The concentration of curcumin PC was calculated according to its content in the formula (Curcumin PC). Lycomato and Lutein or curcumin were dissolved in DMSO (the volume of DMSO in the test solution was 0.01% for either 1 […] Lycomato, Lutein or pure curcumin. The mixture was vortexed and shaken at 37° C. for 10 min and sonicated in a sonicator bath for 15 sec×3 times. From this stock solution the desired concentrations were made by addition of appropriate volumes to warm culture medium. The concentration of lycopene in solution was calculated to 1 ml of the highest final concentration 0.5 ml isopropanol+1.5 ml hexane/dichloromethane (1:5 V/V) containing 0.025% BHT. The solution is vortexed and the phases are separated by centrifugation 3000 rpm for 10 min. A spectrum was done to detect the level of nutrients.
To the controls appropriate volumes of DMSO and/or Diethylene glycol monoethyl ether were added and the percent inhibition of each test tube was calculated in relation to its control tube.
NO production assay—NO levels in supernatants of cell cultures were determined by assaying nitrite levels using Griess reagent and sodium nitrite as a standard.

[5] = tested on: TNF-alpha production by peritoneal macrophages; test: TNF-alpha production assay (ELISA) in LPS-stimulated peritoneal macrophages; conditions: FIG. 3; same set of experiments and concentrations as FIG. 2
Method: as §1, with “Cells were stimulated with LPS (0.1-1 μg/ml) in the presence or absence of carnosic acid and/or one or more of the following carotenoids: carnosic acid, purified lycopene, lycopene-rich tomato extract (Lyc-O-Mato®; LycoRed Ltd., Be'er Sheva, Israel), lutein and beta-Carotene.” left out
as §3
TNF-alpha production assay—Concentrations of TNF-alpha were quantified using ELISA kits (Biolegend Inc., San Diego, Calif.).

[6] = Mus musculus, Peritoneal macrophage, read-out: inhibition of NO production

## CC1=C(/C=C/C(C)=C/C=C/C(C)=C/C=C/C=C(C)/C=C/C=C(C)/C=C/C2=C(C)CCCC2(C)C)C(C)(C)CCC1 [beta-carotene]
[1]
  inhibition of PGE2 production (in words): neither lutein (0.5 μM) nor beta-Carotene (1 μM) alone affected PGE2 production
  inhibition of PGE2 production: around 20%
[2]; Mus musculus, Macrophage, alone, beta-carotene 2 μM
  inhibition at 2 µM: 10%

## CC(C)c1cc2c(c(O)c1O)[C@@]1(C(=O)O)CCCC(C)(C)[C@@H]1CC2 [carnosic acid]
[1]; Mus musculus, Peritoneal macrophage, read-out: inhibition of PGE2 production
  inhibition at 1 µM: 10%
[1]
  inhibition of PGE2 production: around 20%
[3]; [6]
  inhibition at 1 µM: 12%
  inhibition at 2 µM: 18%

## CC1=C[C@H](O)CC(C)(C)[C@H]1/C=C/C(C)=C/C=C/C(C)=C/C=C/C=C(C)/C=C/C=C(C)/C=C/C1=C(C)C[C@@H](O)CC1(C)C [lutein]
[1]
  inhibition of PGE2 production (in words): neither lutein (0.5 μM) nor beta-Carotene (1 μM) alone affected PGE2 production
[4]; Mus musculus, Macrophage, 2 μM Curcumin-PC or pure Curcumin, 1 μM Lycomato, 1 μM Lutein, alone or combined, LPS 0.2 μg/ml, 24 h
  inhibition at 1 µM: 5 ± 0.9%

## CC(C)=CCC/C(C)=C/C=C/C(C)=C/C=C/C(C)=C/C=C/C=C(C)/C=C/C=C(C)/C=C/C=C(\C)CCC=C(C)C [lycopene]
[2]; FIG. 9
  inhibition of superoxide production (in words): lack of detectable inhibition
[3]; alone, range of 1-5 μM
  inhibition of NO production (in words): low level inhibition
[5]
  inhibition of TNF-alpha production (in words): lack of detectable inhibition

## COc1cc(/C=C/C(=O)CC(=O)/C=C/c2ccc(O)c(OC)c2)ccc1O [pure curcumin, curcumin]
[4]; 2 μM Curcumin-PC or pure Curcumin, 1 μM Lycomato, 1 μM Lutein, alone or combined, LPS 0.2 μg/ml, 24 h
  inhibition of LPS stimulated NO production: 2±0.4%
[4]; Mus musculus, Macrophage, dose response 0-20 μM, at 15 μM
  inhibition at 15 µM: 75%
[4]; alone, 1 μM and 2 μM
  inhibition of NO production (in words): non-significant inhibitory effect
